The values that follow are results of earlier work, collected in patent publication US8586580B2, “2,7-substituted thieno[3,2-d] pyrimidine compounds as protein kinase inhibitors” (Korea Institute of Science and Technology, priority 2009, dated 2013).

The data set deals with PC-3, BT-474, LoVo, NCI-H460, U-87 MG and BxPC-3 human tumor xenografts. Particulars: in vivo.

For the compound `CN(c1ncccc1CNc1nc(Nc2ccc3c(c2)CC(=O)N3)ncc1C(F)(F)F)S(C)(=O)=O` [PF-562271], the toxicity result is “No special toxicity has been observed”.
